In patent US20110136844A1, “METHODS FOR INHIBITING DYRK1A TO TREAT CENTRAL NERVOUS SYSTEM DISEASES AND DISORDERS” (MediProPharma, Inc., priority 2009, published 2011):
Marks after values point to notes of the source that are not given here.

Key:
[1] = Plasma pharmacokinetics after single dose in normal rats; format: in vivo, Sprague-Dawley rats; details: rat plasma, i.v. 10 mg/kg
Experimental: (§1) (IV) Pharmacokinetic Studies
(§2) The pharmacokinetic studies in Sprague-Dawley rats were performed using the protocols developed by WuXi AppTec (St. Paul, Minn., USA, and Shanghai, China. http://www.apptecls.com/).

[2] = Brain-plasma pharmacokinetics after single 10 mg/kg bolus i.v. injection in normal rats; format: in vivo, Sprague-Dawley rats; details: rat, 10 mg/kg i.v., the data is the value of AUC(inf)
Experimental: as §1, §2
The brain exposure of the compound of Example 1 is about […] higher than that required for inhibition of DYRK1A, with a Kd and IC50 at about 1 uM, or 280 ng/mL.

## Cc1nc2c(c3c1[nH]c1ccccc13)C(=O)CC(C)(C)C2 [Example 1, 3,3,6-trimethyl-2,3,4,7-tetrahydroindolo[2,3-c]quinolin-1-one]
[1]
  Co: 4100 ng/mL
[2]; time 8 h
  AUC0-t of Plasma: 2350^b ng · h/mL
[2]; time 24 h
  AUC0-t of Plasma: 2350^b ng · h/mL
